Source: PubChem BioAssay AID463136 (University of Pittsburgh Molecular Library Screening Center, 2010)
Inconclusive results are not listed. Activity calls are given as the source filed them. How the calls were made is not given here.

Assays:
[1] = tested on: HCS imaging, dynein-mediated cargo transport inhibition; assay: blockers of dynein-driven microtubule transport – imaging, high-content imaging, dose response (AID 463136);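 further: mouse mammary adenocarcinoma 3617.4 cells expressing GFP-tagged rat glucocorticoid receptor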; on inhibition: reference of the scale not given here
[2] = as above; settings: HCS imaging, dynein-mediated cargo transport inhibition; inhibition at max concentration; at 50 µM; stronger effect = higher value

Compound	IC50 [1]	inhibition [2] [%]
CCCCNC1C(CC)C(CCC)C(C#N)(C#N)C1(C#N)C#N (stereo not drawn)	21.7 µM	75.2
Cc1ccc(C(C)C)c(OCC(=O)NN=C(CCl)CCl)c1	> 50 µM (inactive)	36.3
O=C(/C=C/c1cccc([N+](=O)[O-])c1)n1cnc2ccccc21	17.3 µM	85.7
COc1ccc(CN(CCC(c2ccccc2)c2ccc(OC(C)C)cc2)C(=O)CCl)cc1OC (stereo not drawn)	> 50 µM (inactive)	34.9
COC(=O)c1cc(=O)n(Cc2ccc3c(c2)OCO3)c(=Nc2ccc(F)c(Cl)c2)s1	> 50 µM (inactive)	8.81
N#CC(C#N)=C1C=C2C=C(N3CCCCCC3)CCC2CC1 (stereo not drawn)	36.2 µM	99.2
CC(C)c1ccc(CN2CCN(C(=O)CCl)CC2)cc1	7.94 µM	89.6
COc1ccc(-c2csc3nc(-c4cccnc4)nc(Cl)c23)cc1OC	27.5 µM	84.4
Cc1nc([N+](=O)[O-])c(Br)n1Cc1ccccc1	6.35 µM	84.8
Cc1ccc(N2C(=O)NC(=O)/C(=C\C=C\c3ccco3)C2=O)cc1C	32.4 µM	83.1
COCCCNC(=O)c1ccc2c3c(onc13)-c1ccccc1C2=O	16.7 µM	98.1
O=C(/C=C/c1ccncc1)c1ccc2c(c1)OCCO2	17.1 µM	72.4
CCN1CCN(C2=CC3=CC(=C(C#N)C#N)CCC3CC2)CC1 (stereo not drawn)	30.6 µM	99.2
O=C1/C(=C\c2cccnc2)CN(Cc2ccccc2)C/C1=C\c1cccnc1	15.5 µM	83.3
CCN1CC=C2C(C#N)=C(N)C(C#N)(C#N)C(CCc3ccccc3)C2C1 (stereo not drawn)	19.5 µM	98.8
Cc1cc(C)cc(N=Cc2[nH]c3ccc(Br)c(Cl)c3c2O)c1	27.6 µM	122
CC1=NN(c2ccccc2)C(=O)/C1=C/C=C/c1ccccc1	> 50 µM (inactive)	22.7
N#CC(C#N)=C1C=C2C=C(N3CCOCC3)CCC2CC1 (stereo not drawn)	42.8 µM	99
O=C(/C=C/c1ccccc1)/C=C/c1ccccc1	> 50 µM (inactive)	45.9
CC(=O)OCCCNc1cc(SCc2ccco2)c2nonc2c1[N+](=O)[O-]	35.1 µM	67.7
COc1ccccc1NS(=O)(=O)c1cc([N+](=O)[O-])ccc1N/N=C/c1c[nH]c2ccccc12	> 50 µM (inactive)	21.9

Compound	IC50 [1]	inhibition [2] [%]
Cn1cc([N+](=O)[O-])c(C(=O)Nc2cc(Oc3ccccc3)cc([N+](=O)[O-])c2)n1	> 50 µM (inactive)	45.9
CC(C)(C)NC(=S)N/N=C\c1ccc(-c2ccc([N+](=O)[O-])cc2)o1	> 50 µM (inactive)	3.06
C=C1C(=O)O[C@H]2C[C@@H](C)[C@@H]3C=CC(=O)[C@@]3(C)C[C@H]12	8.71 µM	89.6
CCCn1nc(-c2ccccc2)c2nc3ccccc3nc21	> 50 µM (inactive)	-0.033
CCN1C/C(=C/c2cccc([N+](=O)[O-])c2)C(=O)/C(=C/c2cccc([N+](=O)[O-])c2)C1	22.6 µM	84.7
O=C(/C=C/c1ccccn1)c1cc(Br)ccc1O	28.3 µM	69.4
COc1ccc(-n2ncc(Cl)c(Cl)c2=O)cc1	21.6 µM	84.7
O=[N+]([O-])c1cc(S(=O)(=O)N2CCCCCC2)ccc1F	33.7 µM	87.3
CC(=O)/C=C/n1c(=S)oc2ccccc21	23.4 µM	69.5
O=C(COc1ccc(/C=C\[N+](=O)[O-])cc1)N1CCOCC1	> 50 µM (inactive)	13.7
N#CC(C#N)=C1C=CC=CN1/C(=C\c1ccco1)C(=O)c1ccc(Br)cc1	> 50 µM (inactive)	33.6
O=c1c2ccccc2sn1-c1ccccc1	12.7 µM	90.4
O=C(Cn1ncc(Cl)c(Cl)c1=O)N1CCN(Cc2ccccc2)CC1	5.63 µM	62.9
Clc1ccc(-c2csc3ncnc(Cl)c23)cc1	40.5 µM	72.9
CC(=O)/C(=C/c1ccccc1)C(=O)Nc1ccccc1C	15.9 µM	70.1
COc1ccc(Oc2cc(NC(=O)c3nn(C)cc3[N+](=O)[O-])cc([N+](=O)[O-])c2)cc1	43 µM	69.9
Cc1ccccc1-n1sc2cc(F)ccc2c1=O	13.6 µM	96.2
Cn1c(=O)c(NCCO)c2c3c(cccc31)C(=O)c1ccccc1-2	> 50 µM (inactive)	-13.2
Cc1ccccc1-n1nnnc1Sc1nnnn1-c1ccccc1	17.6 µM	87.8
CC(C)N1C/C(=C/c2ccsc2)C(=O)/C(=C/c2ccsc2)C1	40.1 µM	69.2
O=c1oc2c3c4c(cc2c(C(F)(F)F)c1CCN1CCOCC1)CCCN4CCC3	36.4 µM	99.3

Compound	IC50 [1]	inhibition [2] [%]
CCOC(=O)/C(=C\c1cccnc1)C(=O)c1cc(C(C)=O)c(Nc2ccccc2)s1	9.84 µM	80.4
CCN1/C(=C/C=C/c2oc3ccc4ccccc4c3[n+]2CC)Oc2ccc3ccccc3c21	2.51 µM	96.7
O=C(NCc1cccnc1)/C(=C/c1ccc(-c2cccc(Cl)c2)o1)S(=O)(=O)c1ccccc1	> 50 µM (inactive)	42
Cc1ccc(N2C(=O)NC(=O)/C(=C\C=C\c3ccco3)C2=O)cc1	27.7 µM	108
O=c1cc(-c2c(F)c(F)c(F)c(F)c2F)oc2c(F)c(F)c(F)c(F)c12	27.7 µM	92
O=c1c(Cl)c(Cl)cnn1Cc1nnc(-c2ccc(Cl)cc2)o1	22.9 µM	69.6
Cc1ccccc1NC(=O)COC(=O)c1ccc(S(C)(=O)=O)c([N+](=O)[O-])c1	31.8 µM	81.2
Cc1nc([N+](=O)[O-])c(Br)n1CC(=O)c1cccc([N+](=O)[O-])c1	9.94 µM	91.4
Cc1ccc(NC(=O)CCl)cc1S(=O)(=O)N1CCCCCC1	10.6 µM	88.6
CN(C)c1ccc(/C=C/C(=O)c2cccc(Br)c2)cc1	> 50 µM (inactive)	18.7
CC(=O)n1cc(N(C(=O)CCl)c2ccc(C)cc2)c2ccccc21	16.8 µM	68.7
COc1ccc(-c2csc3nc(-c4ccccc4F)oc(=O)c23)cc1OC	> 50 µM (inactive)	20.3
C=CS(=O)c1sc(Cl)c(N2CCOCC2)c1[N+](=O)[O-] (stereo not drawn)	45.6 µM	57.1
CCC(=O)Nc1cccc(C(=O)/C=C/c2ccc(F)cc2)c1	34.1 µM	74.9
CC(C)CC(=O)/C=C/n1c(=S)oc2ccccc21	> 50 µM (inactive)	24.5
COc1ccc(-n2cccc2/C=C/[N+](=O)[O-])cc1	> 50 µM (inactive)	14.4
O=C(/C=C/c1cccnc1)/C=C/c1cccnc1	3.09 µM	88.7
Cc1cc(C)c(C)c(S(=O)(=O)ON2C(=O)c3ccccc3C2=O)c1C	> 50 µM (inactive)	-3.7
COC(=O)c1cc(=O)n(Cc2ccco2)c(=Nc2ccc(F)c(Cl)c2)s1	> 50 µM (inactive)	31.4
Cc1ccc(N(C(=O)CCl)C(C(=O)NC2CCCCC2)c2cccnc2)cc1C (stereo not drawn)	4.62 µM	86.1
O=[N+]([O-])c1ccc(/C=C/C2=NN(c3ccccc3)C(c3ccco3)C2)o1 (stereo not drawn)	> 50 µM (inactive)	37.1

Compound	IC50 [1]	inhibition [2] [%]
O=C1C=CC(=O)N1CCNc1ncc(C(F)(F)F)cc1Cl	> 50 µM (inactive)	21.2
O=C(NCc1cccnc1)/C(=C/c1ccc(-c2ccc(Cl)cc2)o1)S(=O)(=O)c1ccccc1	34.3 µM	59.1
O=C(/C(=C/c1ccc(Cl)cc1)c1nc2ccccc2[nH]1)c1cccs1	24.9 µM	81.7
O=C(O)c1ccc(NC2=C(Cl)C(=O)c3ccccc3C2=O)cc1	15.2 µM	71.1
Cc1ccc(C)c2nc3sc(C(=O)N4CCCc5ccccc54)c(N)c3cc12	> 50 µM (inactive)	34.8
O=C(Nc1ccc(Cl)cc1)/C(=C/c1cccc(O)c1)c1nc2ccccc2s1	> 50 µM (inactive)	40.7
CCOC(=O)C(C(=O)OCC)C(C(=O)OCC)N1CCOCC1 (stereo not drawn)	14 µM	89.2
CCOc1ccc2noc3c2c1C(=O)c1ccccc1-3	11 µM	99.2
CCN(CC)c1ccc(/C=C/[N+](=O)[O-])cc1	> 50 µM (inactive)	0.227
CC(C)(C)C(=O)Cn1ncc(Br)c(Br)c1=O	7.91 µM	59.6
O=C1C(Cl)=C(Nc2ccc3cn[nH]c3c2)C(=O)c2ccccc21	18.2 µM	66.6
COCCCn1c(O)c(/C=C2\N=C(C#N)C(=Nc3ccc(C)cc3)O2)sc1=S	> 50 µM (inactive)	11
O=c1c(Cl)cc(Cl)nn1-c1ccccc1	10.5 µM	72.4
COC(=O)c1cc(=O)n(Cc2cccs2)c(=Nc2ccccc2)s1	> 50 µM (inactive)	32.2
O=[N+]([O-])c1ccc(NCc2ccccc2)c2nonc12	26.9 µM	99.5
CCSc1nnc(-c2sc3nnc(-c4ccccc4)c(-c4ccccc4)c3c2N)o1	31.3 µM	134
Cc1cc(C)nc(S/C=C/C(=O)c2ccccc2F)n1	19.3 µM	83.3
N#C/C(=C/c1ccc(N2CCCCC2)o1)C(=O)Nc1ccc2ccccc2c1	27.4 µM	98.5
COc1ccc(/C=C/C(=O)c2c(O)c(OC)c3occc3c2OC)cc1	> 50 µM (inactive)	30.2
Cc1[nH]c2ccccc2c1/C=N/Nc1ccc([N+](=O)[O-])cc1S(=O)(=O)Nc1ccc(Cl)cc1	22.8 µM	112
CCN1C(=O)C(=C/C=C/c2ccco2)C(=O)N(CC)C1=S	41.3 µM	75.1
